According to PubChem BioAssay (NCI):
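Five concentrations, 48 hours, 96-well plates. At the GI50, growth is halved. TGI is the concentration that stops growth completely.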

Assays:
Assay in all cases: inhibition of tumour cell growth, NCI panel, 48 h
OVCAR-4 ovarian = tested on: OVCAR-4 ovarian
CCRF-CEM leukemia = tested on: CCRF-CEM leukemia
MOLT-4 leukemia = tested on: MOLT-4 leukemia
SW-620 colon = tested on: SW-620 colon
ACHN renal = tested on: ACHN renal
KM12 colon = tested on: KM12 colon
OVCAR-3 ovarian = tested on: OVCAR-3 ovarian
SK-MEL-5 melanoma = tested on: SK-MEL-5 melanoma
MALME-3M melanoma = tested on: MALME-3M melanoma
MDA-N = tested on: MDA-N
RPMI-8226 leukemia = tested on: RPMI-8226 leukemia
UACC-257 melanoma = tested on: UACC-257 melanoma
U251 CNS = tested on: U251 CNS
EKVX NSCLC = tested on: EKVX NSCLC
A498 renal = tested on: A498 renal
SK-MEL-2 melanoma = tested on: SK-MEL-2 melanoma
SR leukemia = tested on: SR leukemia
MDA-MB-231 breast = tested on: MDA-MB-231 breast
RXF 393 renal = tested on: RXF 393 renal
MDA-MB-435 = tested on: MDA-MB-435
NCI-H522 lung = tested on: NCI-H522 lung
MCF7 breast = tested on: MCF7 breast
K-562 leukemia = tested on: K-562 leukemia
CAKI-1 renal = tested on: CAKI-1 renal
OVCAR-5 ovarian = tested on: OVCAR-5 ovarian
HT29 colon = tested on: HT29 colon
HL-60(TB) leukemia = tested on: HL-60(TB) leukemia
PC-3 prostate = tested on: PC-3 prostate
DU-145 prostate = tested on: DU-145 prostate
SK-MEL-28 melanoma = tested on: SK-MEL-28 melanoma
SN12C renal = tested on: SN12C renal
BT-549 breast = tested on: BT-549 breast
T-47D breast = tested on: T-47D breast
IGROV1 ovarian = tested on: IGROV1 ovarian
HCT-15 colon = tested on: HCT-15 colon
UO-31 renal = tested on: UO-31 renal
HOP-92 NSCLC = tested on: HOP-92 NSCLC
NCI/ADR-RES ovarian = tested on: NCI/ADR-RES ovarian
A549 NSCLC = tested on: A549 NSCLC
NCI-H460 lung = tested on: NCI-H460 lung
COLO 205 colon = tested on: COLO 205 colon
SNB-19 CNS = tested on: SNB-19 CNS
SNB-75 CNS = tested on: SNB-75 CNS
HCC-2998 colon = tested on: HCC-2998 colon
HCT-116 colon = tested on: HCT-116 colon
HOP-62 NSCLC = tested on: HOP-62 NSCLC
UACC-62 melanoma = tested on: UACC-62 melanoma
SK-OV-3 ovarian = tested on: SK-OV-3 ovarian
SF-295 CNS = tested on: SF-295 CNS
SF-539 CNS = tested on: SF-539 CNS
NCI-H226 lung = tested on: NCI-H226 lung
TK-10 renal = tested on: TK-10 renal
786-0 renal = tested on: 786-0 renal
M14 melanoma = tested on: M14 melanoma
NCI-H23 lung = tested on: NCI-H23 lung
OVCAR-8 ovarian = tested on: OVCAR-8 ovarian
LOX IMVI melanoma = tested on: LOX IMVI melanoma
HS 578T breast = tested on: HS 578T breast
SF-268 CNS = tested on: SF-268 CNS

## CC1(C)[C@@H]2CC[C@@]1(C)[C@@H]1O[C@@H](O[C@@H](CN)c3cc(Cl)c(OCc4ccccc4)c(OCc4ccccc4)c3)C[C@H]21
OVCAR-4 ovarian
  TGI: 298 nM
CCRF-CEM leukemia
  TGI: 364 nM
MOLT-4 leukemia
  TGI: 341 nM
SW-620 colon
  TGI: 430 nM
ACHN renal
  TGI: 306 nM
KM12 colon
  TGI: 305 nM
OVCAR-3 ovarian
  TGI: 306 nM
SK-MEL-5 melanoma
  TGI: 324 nM
MALME-3M melanoma
  TGI: 342 nM
MDA-N
  TGI: 284 nM
RPMI-8226 leukemia
  TGI: 225 nM
UACC-257 melanoma
  TGI: 322 nM
U251 CNS
  TGI: 293 nM
EKVX NSCLC
  TGI: 301 nM
A498 renal
  TGI: 344 nM
SK-MEL-2 melanoma
  TGI: 311 nM
SR leukemia
  TGI: 222 nM
MDA-MB-231 breast
  TGI: 288 nM
RXF 393 renal
  TGI: 288 nM
MDA-MB-435
  TGI: 297 nM
NCI-H522 lung
  TGI: 357 nM
MCF7 breast
  TGI: 262 nM
K-562 leukemia
  TGI: 478 nM
CAKI-1 renal
  TGI: 301 nM
OVCAR-5 ovarian
  TGI: 302 nM
HT29 colon
  TGI: 284 nM
HL-60(TB) leukemia
  TGI: 373 nM
PC-3 prostate
  TGI: 292 nM
DU-145 prostate
  TGI: 332 nM
SK-MEL-28 melanoma
  TGI: 384 nM

## CCN(C(=S)N[C@@H](Cc1ccccc1)C(=O)N[C@@H](CC(C)C)C(=O)OC)c1ccccc1
OVCAR-4 ovarian
  TGI: > 100000 nM
SN12C renal
  TGI: > 100000 nM
BT-549 breast
  TGI: > 100000 nM
T-47D breast
  TGI: > 100000 nM
CCRF-CEM leukemia
  TGI: > 100000 nM
MOLT-4 leukemia
  TGI: 81200 nM
SW-620 colon
  TGI: > 100000 nM
ACHN renal
  TGI: > 100000 nM
KM12 colon
  TGI: > 100000 nM
OVCAR-3 ovarian
  TGI: > 100000 nM
SK-MEL-5 melanoma
  TGI: > 100000 nM
IGROV1 ovarian
  TGI: > 100000 nM
HCT-15 colon
  TGI: > 100000 nM
MALME-3M melanoma
  TGI: > 100000 nM
MDA-N
  TGI: > 100000 nM
UO-31 renal
  TGI: > 100000 nM
RPMI-8226 leukemia
  TGI: > 100000 nM
HOP-92 NSCLC
  TGI: > 100000 nM
NCI/ADR-RES ovarian
  TGI: > 100000 nM
UACC-257 melanoma
  TGI: > 100000 nM
U251 CNS
  TGI: > 100000 nM
EKVX NSCLC
  TGI: > 100000 nM
A549 NSCLC
  TGI: > 100000 nM
SK-MEL-2 melanoma
  TGI: > 100000 nM
NCI-H460 lung
  TGI: > 100000 nM
COLO 205 colon
  TGI: > 100000 nM
SR leukemia
  TGI: 61600 nM
SNB-19 CNS
  TGI: > 100000 nM
SNB-75 CNS
  TGI: > 100000 nM
HCC-2998 colon
  TGI: > 100000 nM
HCT-116 colon
  TGI: > 100000 nM
HOP-62 NSCLC
  TGI: > 100000 nM
UACC-62 melanoma
  TGI: > 100000 nM
SK-OV-3 ovarian
  TGI: > 100000 nM
MDA-MB-231 breast
  TGI: > 100000 nM
RXF 393 renal
  TGI: > 100000 nM
SF-295 CNS
  TGI: > 100000 nM
SF-539 CNS
  TGI: > 100000 nM
MDA-MB-435
  TGI: > 100000 nM
NCI-H226 lung
  TGI: > 100000 nM
NCI-H522 lung
  TGI: > 100000 nM
MCF7 breast
  TGI: > 100000 nM
K-562 leukemia
  TGI: > 100000 nM
TK-10 renal
  TGI: > 100000 nM
CAKI-1 renal
  TGI: > 100000 nM
OVCAR-5 ovarian
  TGI: > 100000 nM
HT29 colon
  TGI: > 100000 nM
786-0 renal
  TGI: > 100000 nM
PC-3 prostate
  TGI: > 100000 nM
DU-145 prostate
  TGI: > 100000 nM
SK-MEL-28 melanoma
  TGI: > 100000 nM
M14 melanoma
  TGI: > 100000 nM
NCI-H23 lung
  TGI: > 100000 nM
OVCAR-8 ovarian
  TGI: > 100000 nM
LOX IMVI melanoma
  TGI: > 100000 nM

## Cc1ncc(C(=O)Nc2ccc(CN3CCN(C)CC3)c(C(F)(F)F)c2)cc1C#Cc1cnc(NC2CC2)c2ncccc12
OVCAR-4 ovarian
  GI50: 1490 nM
  TGI: 3270 nM
SN12C renal
  GI50: 1670 nM
  TGI: 3320 nM
BT-549 breast
  GI50: 4280 nM
  TGI: 8560 nM
T-47D breast
  GI50: 5680 nM
  TGI: 13500 nM
CCRF-CEM leukemia
  GI50: 614 nM
  TGI: 1460 nM
MOLT-4 leukemia
  GI50: 519 nM
  TGI: 1170 nM
SW-620 colon
  GI50: 714 nM
  TGI: 1330 nM
ACHN renal
  GI50: 577 nM
  TGI: 1040 nM
KM12 colon
  GI50: 197 nM
  TGI: 819 nM
OVCAR-3 ovarian
  GI50: 693 nM
  TGI: 1280 nM
SK-MEL-5 melanoma
  GI50: 546 nM
  TGI: 1040 nM
IGROV1 ovarian
  GI50: 709 nM
  TGI: 1510 nM
HCT-15 colon
  GI50: 566 nM
  TGI: 1100 nM
MALME-3M melanoma
  GI50: 570 nM
  TGI: 1150 nM
UO-31 renal
  GI50: 675 nM
  TGI: 1190 nM
RPMI-8226 leukemia
  GI50: 621 nM
  TGI: 1620 nM
HOP-92 NSCLC
  GI50: 682 nM
  TGI: 2080 nM
NCI/ADR-RES ovarian
  GI50: 2320 nM
  TGI: 5280 nM
UACC-257 melanoma
  GI50: 719 nM
  TGI: 1590 nM
U251 CNS
  GI50: 581 nM
  TGI: 1110 nM
EKVX NSCLC
  GI50: 659 nM
  TGI: 1210 nM
HS 578T breast
  GI50: 1190 nM
  TGI: 4440 nM
A549 NSCLC
  GI50: 682 nM
  TGI: 1330 nM
A498 renal
  GI50: 1780 nM
  TGI: 5560 nM
SK-MEL-2 melanoma
  GI50: 1660 nM
  TGI: 5540 nM
NCI-H460 lung
  GI50: 623 nM
  TGI: 1190 nM
COLO 205 colon
  GI50: 1360 nM
  TGI: 4510 nM
SR leukemia
  GI50: 493 nM
  TGI: 1270 nM
SNB-19 CNS
  GI50: 713 nM
  TGI: 1320 nM
SNB-75 CNS
  GI50: 1810 nM
  TGI: 5750 nM
HCC-2998 colon
  GI50: 1270 nM
  TGI: 2880 nM
HCT-116 colon
  GI50: 578 nM
  TGI: 1070 nM
HOP-62 NSCLC
  GI50: 1410 nM
  TGI: 3060 nM
UACC-62 melanoma
  GI50: 874 nM
  TGI: 2380 nM
SK-OV-3 ovarian
  GI50: 3390 nM
  TGI: 7660 nM
MDA-MB-231 breast
  GI50: 582 nM
  TGI: 1120 nM
RXF 393 renal
  GI50: 606 nM
  TGI: 1100 nM
SF-295 CNS
  GI50: 747 nM
  TGI: 1680 nM
SF-539 CNS
  GI50: 612 nM
  TGI: 1110 nM
MDA-MB-435
  GI50: 513 nM
  TGI: 963 nM
NCI-H226 lung
  GI50: 2100 nM
  TGI: 6460 nM
NCI-H522 lung
  GI50: 635 nM
  TGI: 1230 nM
MCF7 breast
  GI50: 605 nM
  TGI: 1180 nM
K-562 leukemia
  GI50: 21.1 nM
  TGI: 476 nM
TK-10 renal
  GI50: 780 nM
  TGI: 1310 nM
CAKI-1 renal
  GI50: 1660 nM
  TGI: 3470 nM
OVCAR-5 ovarian
  GI50: 668 nM
  TGI: 1320 nM
HT29 colon
  GI50: 474 nM
  TGI: 1310 nM
786-0 renal
  GI50: 650 nM
  TGI: 1160 nM
HL-60(TB) leukemia
  GI50: 670 nM
  TGI: 1470 nM
PC-3 prostate
  GI50: 597 nM
  TGI: 1170 nM
DU-145 prostate
  GI50: 650 nM
  TGI: 1220 nM
SK-MEL-28 melanoma
  GI50: 641 nM
  TGI: 1180 nM
SF-268 CNS
  GI50: 755 nM
  TGI: 1480 nM
M14 melanoma
  GI50: 560 nM
  TGI: 1110 nM
NCI-H23 lung
  GI50: 646 nM
  TGI: 1360 nM
OVCAR-8 ovarian
  GI50: 708 nM
  TGI: 1540 nM
LOX IMVI melanoma
  GI50: 590 nM
  TGI: 1110 nM
